The test has as its system apomorphine climbing. Briefly: climbing mice assay (antipsychotic activity). The class given is in vivo, mice (CK-1 male). The following applies: ip, apomorphine 1.5 mg/kg subcutaneously, climbing score vs control; for ED50: Mus musculus. As to the method: Subject […] male mice (23-27 grams) are group-housed under standard laboratory conditions. The mice are individually placed in wire mesh stick cages (4"×10") and are allowed one hour for adaption and exploration of the new environment.
For evaluation of climbing, 3 readings are taken at 10, 20, and 30 minutes-after apomorphine administration according to the following scale: […]
Mice consistently climbing before the injection of apomorphine are discarded.
With full-developed apomorphine climbing, the animals are hanging on to the cage walls, rather motionless, over long periods of time. By contrast, climbs due to mere motor stimulation usually only last a few seconds.
The climbing scores are individually totaled (maximal score: 6 per mouse over 3 readings) and the total score of the control group (vehicle intraperitoneally-apomorphine subcutaneously) is set to 100%.

Where a name gives a salt, the structure may show the parent alone.

For `Fc1ccc2c(C3CCN(CCN4CCc5ccccc5C4)CC3)n[nH]c2c1.O=C(O)/C=C\C(=O)O.O=C(O)/C=C\C(=O)O` [N-[2-[4-(6-Fluoro-1H-indazol-3-yl)-1-piperidinyl]ethyl]-1,2,3,4-tetrahydroisoquinoline dimaleate], it took a dose of 0.44 mg/kg to reach the 50% effect level (ED50).

On to `Cl.O=C1c2ccccc2C(=O)N1CCN1CCC(c2nsc3cc(F)ccc23)CC1` [N-[2-[4-(6-Fluoro-1,2-benzisothiazol-3-yl)-1-piperidinyl]ethyl]phthalimide hydrochloride], for which the 50% effect level (ED50) was put at a dose of 0.38 mg/kg.

Take `OCCCN1CCC(c2noc3cc(F)ccc23)CC1` [6-Fluoro-3-[1-(3-hydroxypropyl)-4-piperidinyl]-1,2-benzisoxazole]: the 50% effect level (ED50) was put at a dose of 4.1 mg/kg.

For `Cl.O=C1c2ccccc2C(=O)N1CCN1CCC(c2n[nH]c3cc(F)ccc23)CC1` [N-[2-[4-(6-Fluoro-1H-indazol-3-yl)-1-piperidinyl]ethyl]phthalimide hydrochloride], the ED50 (commonly the dose at which the effect has come halfway, by size or by number of responders) is 0.8 mg/kg.

Turning to `Cl.Cl.Fc1ccc2c(C3CCN(CCN4Cc5ccccc5C4)CC3)noc2c1` [4-(6-Fluoro-1,2-benzisoxazol-3-yl)-1-[2-(2,3-dihydro-1H-isoindol-2-yl)ethyl]-piperidine dihydrochloride], the ED50 came to 0.36 mg/kg.

Regarding `Fc1ccc2c(c1)CN(CCN1CCN(c3n[nH]c4cc(F)ccc34)CC1)C2.O=C(O)/C=C\C(=O)O.O=C(O)/C=C\C(=O)O` [4-(6-Fluoro-1H-indazol-3-yl)-1-[2-(5-fluoro-2,3-dihydro-1H-isoindol-2-yl)-ethyl]piperazine dimaleate], the 50% effect level (ED50) was put at a dose of 0.16 mg/kg.

In the case of `Cl.Cl.NCCCN1CCC(c2noc3cc(F)ccc23)CC1` [1-(3-Aminopropyl)-4-(6-fluoro-1,2-benzisoxazol-3-yl)piperidine dihydrochloride], the 50% effect level (ED50) was put at a dose of 22.6 mg/kg.

On to `Cc1ccc2c(c1)CN(CCN1CCN(c3n[nH]c4cc(F)ccc34)CC1)C2` [4-(Fluoro-1H-indazol-3-yl)-1-[2-(2,3-dihydro-5-methyl-1H-isoindol-2-yl)-ethyl]piperazine difumarate], for which the 50% effect level (ED50) was put at a dose of 0.17 mg/kg.

The compound `O=C1c2ccccc2C(O)N1CCN1CCN(c2n[nH]c3cc(F)ccc23)CC1` (stereo not shown) [2-[2-[4-(6-Fluoro-1H-indazol-3-yl)-1-piperazinyl]ethyl-2,3-dihydro-3-hydroxy-1H-isoindol-1-one hemifumarate] returned an ED50 of 2.2 mg/kg.

Regarding `Fc1ccc2c(C3CCN(CCC4COc5ccccc5O4)CC3)noc2c1` (stereo not shown) [2-[4-(6-fluoro-1,2-benzisoxazol-3-yl)-1-piperidinyl]-ethyl]-1,4-benzodioxan], the 50% effect level (ED50) was put at a dose of 0.29 mg/kg.

On to `Fc1ccc2c(C3CCN(CCN4CCCc5ccccc54)CC3)noc2c1.O=C(O)/C=C/C(=O)O` [N-[2-[4-(6-Fluoro-1,2-benzisoxazol-3-yl)-1-piperidinyl]ethyl]-1,2,3,4-tetrahydroquinoline fumarate], for which the ED50 came out at 1.19 mg/kg.

Turning to `O=C1c2ccccc2C(=O)N1CCN1CCC(c2noc3cc(F)ccc23)CC1` [N-[2-[4-(6-Fluoro-1,2-benzisoxazol-3-yl)-1-piperidinyl]ethyl]phthalimide], the ED50 stood at 5 mg/kg.

As for `Fc1ccc2c(c1)CN(CCN1CCC(c3n[nH]c4cc(F)ccc34)CC1)C2.O=C(O)/C=C\C(=O)O.O=C(O)/C=C\C(=O)O` [4-(6-Fluoro-1H-indazol-3-yl)-1-[2-(5-fluoro-2,3-dihydro-1H-isoindol-2-yl)ethyl]piperidine dimaleate], the ED50 is 0.27 mg/kg.

`CC1c2ccccc2C(=O)N1CCN1CCC(c2noc3cc(F)ccc23)CC1` (stereo not shown) [2-[2-[4-(6-Fluoro-1,2-benzisoxazol-3-yl)-1-piperidinylethyl]-2,3-dihydro-3-methyl-1H-isoindol-1-one hydrochloride] gave an ED50 of 1.17 mg/kg.

`COc1cc(C(C)=O)ccc1OCCCCN1CCC(c2noc3cc(F)ccc23)CC1` [1-[4-[4-[4-(6-Fluoro-1,2-benzisoxazol-3-yl)-1-piperidinyl]butoxy]-3-methoxyphenyl]ethanone] showed an ED50 of 0.68 mg/kg.

On to `Nc1ccc2c(c1)C(=O)N(CCN1CCC(c3noc4cc(F)ccc34)CC1)C2=O.O=C(O)/C=C/C(=O)O` [N-[2-[4-(6-Fluoro-1,2-benzisoxazol-3-yl)-1-piperidinyl]ethyl]-4-aminophthalimide fumarate], for which it took a dose of 0.097 mg/kg to reach the 50% effect level (ED50).

`Cc1cccc2c1CN(CCN1CCN(c3n[nH]c4cc(F)ccc34)CC1)C2` [4-(6-Fluoro-1H-indazol-3,yl)-1-[2-(2.3-dihydro-4-methyl-1H-isoindol-2-yl)ethyl]piperazine difumarate]: it took a dose of 0.35 mg/kg to reach the 50% effect level (ED50).

`COc1cc(C(C)=O)ccc1OCCCCN1CCC(c2noc3ccccc23)CC1` [1-[4-[4-[4-(1,2-Benzisoxazol-3-yl)-1-piperidinyl]butoxy]-3-methoxyphenyl]ethanone] came in with an ED50 of 1.6 mg/kg.

In the case of `Fc1ccc2c(C3CCN(CCN4CCc5ccccc5C4)CC3)noc2c1` [N-12-[4-(6-Fluoro-1,2-benzisoxazol-3-yl)-1-piperidinyl]ethyl-1,2,3,4-tetrahydroisoquinoline difumarate], the ED50 was 0.23 mg/kg.

Turning to `C=C1c2ccccc2C(=O)N1CCN1CCC(c2noc3cc(F)ccc23)CC1.Cl` [2,3-Dihydro-2-[2-[4-(6-fluoro-1,2-benzisoxazol-3-yl)-1-piperidinyl]ethyl]-3-methylene-1H-isoindol-1-one hydrochloride], the ED50 was determined as 0.64 mg/kg.

`Fc1ccc2c(c1)CN(CCN1CCN(c3n[nH]c4ccccc34)CC1)C2.O=C(O)/C=C\C(=O)O.O=C(O)/C=C\C(=O)O` [4-(1H-indazol-3-yl)-1-[2-(2,3-dihydro-5-fluoro-1H-isoindol-2-yl)ethyl]piperazine dimaleate] came in with an ED50 of 1.32 mg/kg.

In the case of `O=C(CN1CCC(c2noc3cc(F)ccc23)CC1)N1Cc2ccccc2C1.O=C(O)/C=C/C(=O)O` [2-[4-(6-Fluoro-1,2-benzisoxazol-3-yl)-1-piperidinyl]-1-(2,3-dihydro-1H-isoindol-2-yl)ethanone fumarate], the ED50 came to 2.33 mg/kg.

In the case of `Cl.O=C1c2ccc(O)cc2C(=O)N1CCN1CCC(c2noc3cc(F)ccc23)CC1` [N-[2-[4-(6-Fluoro-1,2-benzisoxazol-3-yl)-1-piperidinyl]ethyl]-4-hydroxyphthalimide hydrochloride], the ED50 came out at 1.6 mg/kg.

Compound `CC(=O)c1ccc(CCCCN2CCC(c3noc4cc(F)ccc34)CC2)cc1` [1-[4-(4'-Acetophenyl)butyl]-4-(6-fluoro-1,2-benzisoxazol-3-yl)piperidine] returned an ED50 of 0.34 mg/kg.

Turning to `CC(CCN1C(=O)c2ccccc2C1=O)N1CCC(c2noc3cc(F)ccc23)CC1.Cl` (stereo not shown) [N,[3-[4-(6-Fluoro-1,2-benzisoxazol-3-yl)-1-piperidinyl]butyl]phthalimide hydrochloride], the “CLIMBING MOUSE ASSAY ED50” value turned out to be 0.7 mg/kg.

For the compound `COc1cc(C(C)=O)ccc1OCCCN1CCC(c2nsc3cc(F)ccc23)CC1.Cl` [1-[4-[3-[4-(6-Fluoro-1,2-benzisothiazol-3-yl)-1-piperidinyl]propoxy]-3-methoxy-phenyl]ethanone hydrochloride], the ED50 came out at 0.16 mg/kg.

`O=C1c2ccccc2CN1CCN1CCC(c2noc3cc(F)ccc23)CC1` [2,3-dihydro-2-[2-[4-(6-Fluoro-1,2-benzisoxazol-3-yl)-1-piperidinyl]ethyl]-1H-isoindol-1-one] showed an ED50 of 1.9 mg/kg.

The compound `O=C(CN1CCC(c2noc3cc(F)ccc23)CC1)N1CCc2ccccc2C1` [1-(1,2,3,4-Tetrahydro-1H-isoquinolin-2-yl)-2-[4-(6-fluoro-1,2-benzosoxazol-3-yl)-1-piperidinyl]-ethanone hydrochloride ethanolate] returned an ED50 of 6.25 mg/kg.

In turn, `Fc1ccc2c(N3CCN(CCCN4Cc5ccccc5C4)CC3)n[nH]c2c1` [4-(6-Fluoro-1H-indazol-3-yl)-1-[3-(2.3-dihydro-1H-isoindol-2-yl)propyl]-piperazine dimaleate] had an ED50 of 0.46 mg/kg.

As for `Fc1ccc2c(N3CCN(CCN4Cc5ccccc5C4)CC3)n[nH]c2c1.O=C(O)/C=C\C(=O)O.O=C(O)/C=C\C(=O)O` [4-(6-Fluoro-1H-indazol-3-yl)-1-[2-(2,3-dihydro-1H-isoindol-2-yl)-ethyl]piperazine dimaleate], the ED50 worked out at 0.25 mg/kg.

The compound `O=C1c2c(F)ccc(F)c2C(=O)N1CCN1CCC(c2noc3cc(F)ccc23)CC1` [N-[2-[4-(6-Fluoro-1,2-benzisoxazol-3-yl)-1-piperidinyl]ethyl]-3,6-difluorophthalimide] registered an ED50 of 2.9 mg/kg.

In turn, `Cc1nc2ccccc2c(=O)n1CCN1CCC(c2noc3cc(F)ccc23)CC1` [3-[2-[4-(6-Fluoro-1,2-benzisoxazol-3-yl)-1-piperidinyl]ethyl]-2-methyl-3H-quinazolin-4-one] yielded an ED50 of 0.61 mg/kg.

Take `CCCCCCCCCC(=O)OCCCCN1CCC(c2noc3cc(F)ccc23)CC1.O=C(O)/C=C/C(=O)O` [4-[4-(6-Fluoro-1,2-benzisoxazol-3-yl)-1-piperidinyl]butyl decanoate fumarate]: it took a dose of 3.31 mg/kg to reach the 50% effect level (ED50).

Turning to `COc1cc(C(C)=O)ccc1OC/C=C\CN1CCC(c2noc3cc(F)ccc23)CC1` [(Z)-1-[4-[[4-[4-(6-fluoro-1,2-benzisoxazol-3-yl)-1-piperidinyl]-2-butenyl]oxy]-3-methoxy-phenyl]ethanone], the ED50 was determined as 0.61 mg/kg.

The compound `Cl.O=C1c2ccccc2C(=O)N1CCN1CCC(c2noc3cc(F)ccc23)CC1` [N-[2-[4-(6-Fluoro-1,2-benzisoxazol-3-yl)-1-piperidinyl]ethyl]phthalimide h ydrochloride] came in with an ED50 of 0.48 mg/kg.

The compound `Fc1ccc2c(C3CCN(CCCOc4cccc5cnccc45)CC3)noc2c1` [6-Fluoro-3-[1-[3-[(isoquinol-5-yl)oxylpropyl]-4-piperidinyl]-1,2-benzisoxazole sesquifumarate] displayed an ED50 of 0.172 mg/kg.

The compound `O=C1c2ccccc2C(=O)N1CCN1CCN(c2n[nH]c3cc(F)ccc23)CC1` [N-[2-[4-(6-Fluoro-1H-indazol-3.-yl)-1-piperazinyl]ethyl]phthalimide] yielded an ED50 of 1.2 mg/kg.

The values are drawn from US5556858A, “Cis-2-[(4-heteroaryl-1-piperazinyl)alkyl] hexahydro-1H-isoindole-1,3 (2H)-diones and related compounds and their therapeutic utility” (Hoechst-Roussel Pharmaceuticals, Inc., priority 1995, dated 1996).
